The values below come from patent US4115385A, “Antibacterial 3-(5-tetrazolyl) penam compounds” (Pfizer Inc., priority 1977, dated 1978).

In brackets after ≈: the same amount, converted by molar mass.

The test system of the first assay is Streptococcus pyogenes. Description: In vitro minimum inhibitory concentration (MIC) vs. Strep. pyogenes. The assay is classed as cell-based. The note with it: Streptococcus pyogenes, read-out: MIC vs. Strep. pyogenes. The procedure, abridged:
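Broth inoculated with bacteria and test antibiotic, incubated overnight and read visually; MIC is the lowest concentration preventing turbidity. Test preparations also contain some of the corresponding tetrazole tautomer.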
As for `CC1(C)S[C@@H]2[C@H](NC(=O)Cc3ccc(OCCN)cc3)C(=O)N2[C@H]1c1nn[nH]n1` [2-(4-[2-aminoethoxy]phenyl)acetyl, 6-(2-[4-(2-Aminoethoxy)phenyl]acetamido)-2,2-dimethyl-3-(5-tetrazolyl)penam], the MIC (commonly the least concentration at which growth counts as inhibited) was less than 0.1 µg/mL.

Regarding `CC1(C)S[C@@H]2[C@H](NC(=O)Cc3ccc(OCCN=[N+]=[N-])cc3)C(=O)N2[C@H]1c1nn[nH]n1` [2-(4-[2-azidoethoxy]phenyl)acetyl, 6-(2-[4-(2-Azidoethoxy)phenyl]acetamido)-2,2-dimethyl-3-(5-tetrazolyl)penam], the MIC was less than 0.1 µg/mL. For the compound `CC1(C)S[C@@H]2[C@H](NC(=O)Cc3ccc(CN)cc3)C(=O)N2[C@H]1c1nnn[nH]1` [2-(4-aminomethylphenyl)acetyl, 6-(2-[4-Aminomethylphenyl]acetamido)-2,2-dimethyl-3-(5-tetrazolyl)penam], the MIC is less than 0.1 µg/mL. For the compound `CC1(C)S[C@@H]2[C@H](NC(=O)CNC(=N)c3ccncc3)C(=O)N2[C@H]1c1nnn[nH]1` [2-(4-pyridinecarboxamidino)acetyl], the MIC is less than 0.1 µg/mL. Still for that read-out and setting: the figure for `CC1(C)S[C@@H]2[C@H](NC(=O)CSc3ccncc3)C(=O)N2[C@H]1c1nnn[nH]1` [2-(4-pyridylthio)acetyl, 6-(2-[4-Pyridylthio]acetamido)-2,2-dimethyl-3-(5-tetrazolyl)penam] is less than 0.1 µg/mL. Regarding `CC1(C)S[C@@H]2[C@H](NC(=O)Cc3ccc(CN)s3)C(=O)N2[C@H]1c1nnn[nH]1` [2-(5-aminomethyl-2-thienyl)-acetyl, 6-(2-[5-Aminomethyl-2-thienyl]acetamido)-2,2-dimethyl-3-(5-tetrazolyl)penam], the minimal inhibitory concentration (MIC) is no more than 0.1 µg/mL. Consider `CC1(C)S[C@@H]2[C@H](NC(=O)Cc3ccc(CN=[N+]=[N-])s3)C(=O)N2[C@H]1c1nnn[nH]1` [2-(5-azidomethyl-2-thienyl)-acetyl, 6-(2-[5-Azidomethyl-2-thienyl]acetamido)-2,2-dimethyl-3-(5-tetrazolyl)penam], for which the MIC is no more than 0.1 µg/mL.

`CC1(C)S[C@@H]2[C@H](NC(=O)C(C(=O)Oc3ccc4c(c3)CCC4)c3ccccc3)C(=O)N2[C@H]1c1nnn[nH]1` (stereo partly shown) [2-(5-indanyloxycarbonyl)-2-phenylacetyl, 6-(2-[5-Indanyloxycarbonyl]-2-phenylacetamido)-2,2-dimethyl-3-(5-tetrazolyl)penam]: the minimal inhibitory concentration (MIC) is less than 0.1 µg/mL. For `CC(=N)NCC(=O)N[C@@H]1C(=O)N2[C@@H]1SC(C)(C)[C@@H]2c1nnn[nH]1` [2-(acetamidino)acetyl], the MIC was less than 0.1 µg/mL. On the same count and under the same terms, the result for `CC1(C)S[C@@H]2[C@H](NC(=O)CNC(=O)c3ccccc3)C(=O)N2[C@H]1c1nn[nH]n1` [2-(benzamido)acetyl, 6-(2-[Benzamido]acetamido)-2,2-dimethyl-3-(5-tetrazolyl)penam] reads 0.1 µg/mL (≈ 0.249 µM). For the compound `CCSCC(=O)N[C@@H]1C(=O)N2[C@@H]1SC(C)(C)[C@@H]2c1nnn[nH]1` [2-(ethylthio)acetyl], the MIC is less than 0.1 µg/mL. Same read-out and setting: the figure for `CC1(C)S[C@@H]2[C@H](NC(=O)Cc3ccccc3OCCN)C(=O)N2[C@H]1c1nn[nH]n1` [2-(o-[2-aminoethoxy]phenyl)acetyl, 6-(2-[2-(2-Aminoethoxy)phenyl]acetamido)-2,2-dimethyl-3-(5-tetrazolyl)penam] is less than 0.1 µg/mL; for `CC1(C)S[C@@H]2[C@H](NC(=O)Cc3ccccc3CN)C(=O)N2[C@H]1c1nnn[nH]1` [2-(o-[aminomethyl]phenyl)acetyl, 6-[2-[o-(aminomethyl)phenyl]acetamido]-2,2-dimethyl-3-(5-tetrazolyl)penam] it is less than 0.1 µg/mL.

The same assay, now with this note: Streptococcus pyogenes; Table II; two-fold serial dilution, Brain-Heart Infusion broth, overnight; read-out: MIC vs. Strep. pyogenes.
On to `CC1(C)S[C@@H]2[C@H](NC(=O)CSCc3ccccc3)C(=O)N2[C@H]1c1nnn[nH]1` [2-(benzylthio)acetyl], for which the minimal inhibitory concentration (MIC) stood at 0.2 µg/mL (≈ 0.494 µM). In the case of `CCOC(=O)CC(=O)N[C@@H]1C(=O)N2[C@@H]1SC(C)(C)[C@@H]2c1nnn[nH]1` [2-(ethoxycarbonyl)acetyl], the minimal inhibitory concentration (MIC) came to 0.39 µg/mL (≈ 1.1 µM). Still for that read-out and setting: the figure for `CC1(C)S[C@@H]2[C@H](NC(=O)CSc3ccccc3)C(=O)N2[C@H]1c1nnn[nH]1` [2-(phenylthio)acetyl, 6-(2-[phenylthio]acetamido)-2,2-dimethyl-3-(5-tetrazolyl)penam] is 0.78 µg/mL (≈ 2 µM).
